Key:
purified human CyB5R3 [1] = biological target: T1, purified human CyB5R3 (Homo sapiens, UniProt P00387); assay: NADH-ferricyanide reductase activity inhibition assay with purified Cyb5R3; assay type: biochemical; conditions: for Cyb5R3 inhibitory activity, SAR trend of phenyl substituents: para position: carbon, chlorine, bromine
T1 construct: His6 (N); made in house; host or cells: E. coli SoluBL21 (Genlantis)
T1 sequence (P00387 1-301): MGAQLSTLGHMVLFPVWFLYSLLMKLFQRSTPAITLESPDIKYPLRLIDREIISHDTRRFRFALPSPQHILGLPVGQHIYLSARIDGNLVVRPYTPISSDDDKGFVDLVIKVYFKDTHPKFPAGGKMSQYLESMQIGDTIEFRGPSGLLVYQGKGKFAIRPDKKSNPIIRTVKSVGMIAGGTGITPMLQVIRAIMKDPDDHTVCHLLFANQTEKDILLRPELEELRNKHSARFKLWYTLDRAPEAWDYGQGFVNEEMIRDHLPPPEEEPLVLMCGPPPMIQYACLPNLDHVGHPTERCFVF
Protocol: FIG. 13. […] Primary screen using purified human CyB5R3 was incubated with each compound (500 μM) followed by activity measurements with an NADH-ferricyanide reductase assay. […] Purified proteins were prepared as previously described in Sparacino-Watkins et al. Briefly, human Cyb5R3 gene was cloned into the pET28a plasmid containing a His6 tag on the N-terminus of Cyb5R3. The plasmid was transformed into SoluBL21 cells (Genlantis) and protein purification was carried out as previously described. […] Chromatographic separation was conducted with an Äkta-Purifier FPLC (GE Healthcare Life Sciences, USA) running Unicorn software version 5.1. Metal affinity chromatography resin, Ni-NTA superflow (Qiagen), was packed into a XK 26/20 column (GE). Protein identity was confirmed with liquid chromatography and tandem mass spectrometry (LC-MS/MS, University of Pittsburgh Genome and Protein Core Facilities). The NADH-ferricyanide reductase activity for purified Cyb5R3 was assayed by spectrophotometric measurements using the rate of potassium ferricyanide reduction at 420 nm, according to Strittmatter and […]. […] The reaction was started by addition of cofactor NADH and reduction of ferricyanide was followed for 2 min by recording the absorbance decrease at 420 nm using Cary 50 spectrophotometer and small glass cuvettes with a 0.2 cm path length. Since NADH has partial reduction power independent of Cyb5R3, the reaction rate was corrected by subtracting the reaction rate of ferricyanide in the absence of enzyme. The enzyme activity was calculated using the extinction coefficient of 1.02 mM^-1 cm^-1 for the difference in absorbance between reduced and oxidized form of ferricyanide. In order to observe the inhibitory effect of each Cyb5R3 small molecule inhibitor, the compounds were pre-incubated with Cyb5R3 at 37° C. for 15 minutes followed by measurements in NADH-ferricyanide reductase activity as described above.

[2] = test system: sGC-Cyb5R3 macromolecular complexes; assay: Proximity ligation assay for sGC-Cyb5R3 complexes in VSMs; assay type: cell-based; conditions: ODQ 10 μM, 10 min, primary rat aortic VSMs
From the text: FIG. 2. […] Cells were then subjected to a proximity ligation assay and imaged using confocal microscopy for sGC-Cyb5R3 macromolecular complexes (red punctates). Quantification of complexes per nuclei is shown in graph (n=3). **** indicates significance of <0.0001 and error bars are s.e.m. […] Following ODQ treatment, VSMs were fixed and subjected to a proximity ligation assay (PLA) to determine the association between oxidized sGC and Cyb5R3.

primary rat VSMs = assay: Rescue of sGC protein degradation by Bay 58-2667 in VSMs (Western blot); assay type: cell-based; conditions: Cyb5R3 knockdown or ZINC 747 treated VSMs
From the text: FIG. 7. Bay 58-2667 rescues sGC protein degradation following Cyb5R3 knockdown or activity inhibition. a, Western blot analysis for sGC expression in primary rat VSMs treated with and without Bay 58-2667 following Cyb5R3 knockdown or with ZINC 39395747 (b). Quantification of sGC expression is shown in the graph below (n=2). Error bars represent s.e.m.
It was therefore tested if Bay 58 2667 could rescue the effects caused by decreased Cyb5R3 expression and activity.

oxidized sGC = assay: Purified Cyb5R3/oxidized sGC cGMP assay stimulated with Bay 58-2667; assay type: biochemical; conditions: 100 nM Bay 58-2667, in the presence of Cyb5R3
Protocol: FIG. 4. Purified Cyb5R3 directly reduces oxidized sGC resulting in limited stimulation by the sGC activator Bay 58-2667. Purified Cyb5R3, Cyb5b and oxidized sGC were mixed and incubated in trienthanolamine buffer, DTT (positive control), ZINC 747 (Cyb5R3 inhibitor), +/−NADH (required co-factor for Cyb5R3) in the absence of oxygen. Samples were then combined with GTP, and Mn^2+ followed by stimulation with 100 nM Bay 58-2667. After 5 min, reactions were stopped and samples were measured for cGMP. Quantification of cGMP is shown in the graph (n=2). Error bars represent s.e.m.

Cyb5R3 = conditions: previous studies; cited from earlier work
purified human CyB5R3 [3] = biological target: T1, purified human CyB5R3; assay: NADH-ferricyanide reductase activity inhibition assay with purified Cyb5R3; assay type: biochemical; conditions: 50 μM of each compound

SMILES	inhibition of CyB5R3, primary screen (purified human CyB5R3 [1]; 500 μM of each compound)	inhibition of CyB5R3, secondary screen (purified human CyB5R3 [3])	also measured
C[C@@H]1N=C(CSc2ccccc2)CC(=O)N1 [ZINC05774833]	abolished all inhibitory effects	–	–
O=c1onc2cnc3ccccc3n12 [ODQ, 1H-(1,2,4)oxadiazolo[4,3-a]quinoxalin-1-one]	–	–	number of sGC-Cyb5R3 macromolecular complexes [2]: increases number of macromolecular complexes
CC(C)SCc1cc(=O)[nH]c(=S)[nH]1 [ZINC31773411]	100%	–	–
Cc1ccc(SCc2cc(=O)[nH]c(=S)[nH]2)cc1 [ZINC06493891]	–	–	Cyb5R3 inhibitory activity, SAR trend of phenyl substituents (purified human CyB5R3 [1]): activity increases with atomic mass
O=C(O)CCCCN(CCc1ccccc1OCc1ccc(CCc2ccccc2)cc1)Cc1ccc(C(=O)O)cc1 [Bay 58-2667, cinaciguat]	–	–	sGC protein levels (primary rat VSMs): restoration of sGC protein levels; cGMP production on Bay 58-2667 stimulation (oxidized sGC): does not increase cGMP production
O=c1cc(CSc2ccc(Br)cc2)[nH]c(=S)[nH]1 [ZINC15987502]	–	–	Cyb5R3 inhibitory activity, SAR trend of phenyl substituents (purified human CyB5R3 [1]): activity increases with atomic mass
CCCCCOc1cc(=O)[nH]c(=S)[nH]1 [ZINC13957379]	100%	–	–
CCCc1cc(=O)[nH]c(=S)[nH]1 [PTU, propylthiouracil, reference compound]	–	little inhibition	concentration showing inhibition of Cyb5R3 (Cyb5R3): approximately 275 μM; inhibition at 500 µM (purified human CyB5R3 [1]; 500 μM of each compound, read-out: inhibition of CyB5R3, primary screen): ~100%
O=c1cc(CSc2ccccc2)[nH]c(=O)[nH]1 [ZINC17744101]	100%	50%	–
O=c1cc(CSc2ccccc2)[nH]c(=S)[nH]1 [ZINC05626394]	100%	100%	–
